# Measurements: ChEMBL document CHEMBL1158732, “Intercedensides D-I, cytotoxic triterpene glycosides from the sea cucumber Mensamaria intercedens Lampert” (2005)
# How the values were obtained:
# A549 = assay: Cytotoxicity against human A549 cells by SRB method; format: functional; conditions: read-out: ED50 (the source's name)
# MCF7 = assay: Cytotoxicity against human MCF7 cells by SRB method; format: functional; conditions: read-out: ED50 (the source's name)
# 1A9 = assay: Cytotoxicity against human 1A9 cells by SRB method; format: functional; conditions: read-out: ED50 (the source's name)
# CAKI-1 = assay: Cytotoxicity against human Caki1 cells by SRB method; format: functional; conditions: read-out: ED50 (the source's name)
# [1] = Cytotoxicity against human U87MG cells by SRB method; format: functional, U-87MG ATCC; conditions: U-87 MG, read-out: ED50 (the source's name)
# PC-3 = assay: Cytotoxicity against human PC3 cells by SRB method; format: functional; conditions: read-out: ED50 (the source's name)
# KB = assay: Cytotoxicity against human KB cells by SRB method; format: functional; conditions: read-out: ED50 (the source's name)
# [2] = Cytotoxicity against human KBVIN cells by SRB method; format: functional; conditions: read-out: ED50 (the source's name)
# SK-MEL-2 = assay: Cytotoxicity against human SK-MEL-2 cells by SRB method; format: functional; conditions: read-out: ED50 (the source's name)
# HCT-8 = assay: Cytotoxicity against human HCT8 cells by SRB method; format: functional; conditions: read-out: ED50 (the source's name)
structure (smiles),measurement,setting,value
CO[C@@H]1[C@@H](O)[C@H](O[C@@H]2[C@@H](O)[C@H](O[C@H]3[C@H](O)[C@@H](O)[C@H](O[C@H]4[C@H](O[C@H]5CC[C@]6(C)[C@@H]7CC[C@]89C(=O)O[C@@](C)(/C=C\C=C(C)C)[C@@]8(O)[C@@H](OC(C)=O)C[C@@]9(C)C7=CC[C@H]6C5(C)C)OC[C@@H](OS(=O)(=O)[O-])[C@@H]4O)O[C@@H]3C)OC[C@H]2O)O[C@H](CO)[C@H]1O.[Na+] [LNTERCEDENSIDE H],EC50,A549,1.4 µg/mL
same,EC50,MCF7,1.8 µg/mL
same,EC50,1A9,0.96 µg/mL
same,EC50,CAKI-1,1 µg/mL
same,EC50,[1],3.2 µg/mL
same,EC50,PC-3,2.2 µg/mL
same,EC50,KB,3 µg/mL
same,EC50,[2],3.7 µg/mL
same,EC50,SK-MEL-2,2.2 µg/mL
same,EC50,HCT-8,1.9 µg/mL
CO[C@@H]1[C@@H](O)[C@H](O[C@@H]2[C@@H](O)[C@H](O[C@@H]3CO[C@@H](O[C@H]4[C@H](O[C@H]5CC[C@]6(C)[C@@H]7CC[C@]89C(=O)O[C@@](C)(/C=C\C=C(C)C)C8[C@@H](OC(C)=O)C[C@@]9(C)C7=CC[C@H]6C5(C)C)OC[C@@H](OS(=O)(=O)[O-])[C@@H]4O)[C@H](O)[C@H]3O)OC[C@H]2O)O[C@H](CO)[C@H]1O.[Na+] (stereo not given in full) [LNTERCEDENSIDE G],EC50,A549,1.6 µg/mL
same,EC50,MCF7,2 µg/mL
same,EC50,1A9,1.9 µg/mL
same,EC50,CAKI-1,3.8 µg/mL
same,EC50,[1],3.3 µg/mL
same,EC50,PC-3,2 µg/mL
same,EC50,KB,3.3 µg/mL
same,EC50,[2],3.9 µg/mL
same,EC50,SK-MEL-2,2.4 µg/mL
same,EC50,HCT-8,1.8 µg/mL
CO[C@@H]1[C@@H](O)[C@H](O[C@@H]2[C@@H](O)[C@H](O[C@@H]3CO[C@@H](O[C@H]4[C@H](O[C@H]5CC[C@]6(C)[C@@H]7CC[C@]89C(=O)O[C@@](C)(/C=C\C=C(C)C)[C@@]8(O)[C@@H](OC(C)=O)C[C@@]9(C)C7=CC[C@H]6C5(C)C)OC[C@@H](OS(=O)(=O)[O-])[C@@H]4O)[C@H](O)[C@H]3O)OC[C@H]2O)O[C@H](CO)[C@H]1O.[Na+] [LNTERCEDENSIDE E],EC50,A549,1.4 µg/mL
same,EC50,MCF7,1.4 µg/mL
same,EC50,1A9,1.7 µg/mL
same,EC50,CAKI-1,1.6 µg/mL
same,EC50,[1],2.1 µg/mL
same,EC50,PC-3,1.7 µg/mL
same,EC50,KB,1.9 µg/mL
same,EC50,[2],2 µg/mL
same,EC50,SK-MEL-2,1.6 µg/mL
same,EC50,HCT-8,1.1 µg/mL
CO[C@@H]1[C@@H](O)[C@H](O[C@@H]2[C@@H](O)[C@H](O[C@H]3[C@H](O)[C@@H](O)[C@H](O[C@H]4[C@H](O[C@H]5CC[C@]6(C)[C@@H]7CC[C@]89C(=O)O[C@@](C)(CCC=C(C)C)[C@@]8(O)[C@@H](OC(C)=O)C[C@@]9(C)C7=CC[C@H]6C5(C)C)OC[C@@H](OS(=O)(=O)[O-])[C@@H]4O)O[C@@H]3CO)OC[C@H]2O)O[C@H](CO)[C@H]1O.[Na+] [INTERCEDENSIDE F],EC50,A549,1.7 µg/mL
same,EC50,MCF7,2.1 µg/mL
same,EC50,1A9,1.7 µg/mL
same,EC50,CAKI-1,1.7 µg/mL
same,EC50,[1],3.3 µg/mL
same,EC50,PC-3,2.3 µg/mL
same,EC50,KB,3.2 µg/mL
same,EC50,[2],3.2 µg/mL
same,EC50,SK-MEL-2,2.1 µg/mL
same,EC50,HCT-8,1.9 µg/mL
CO[C@@H]1[C@@H](O)[C@H](O[C@@H]2[C@@H](O)[C@H](O[C@H]3[C@H](O)[C@@H](O)[C@H](O[C@H]4[C@H](O[C@H]5CC[C@]6(C)[C@@H]7CC[C@]89C(=O)O[C@@](C)(/C=C\C=C(C)C)[C@@]8(O)[C@@H](OC(C)=O)C[C@@]9(C)C7=CC[C@H]6C5(C)C)OC[C@@H](OS(=O)(=O)[O-])[C@@H]4O)O[C@@H]3CO)OC[C@H]2O)O[C@H](CO)[C@H]1O.[Na+] [LNTERCEDENSIDE D],EC50,A549,1.8 µg/mL
same,EC50,MCF7,2.4 µg/mL
same,EC50,1A9,2.4 µg/mL
same,EC50,CAKI-1,> 5 µg/mL
same,EC50,[1],4.1 µg/mL
same,EC50,PC-3,3.3 µg/mL
same,EC50,KB,3.7 µg/mL
same,EC50,[2],4.3 µg/mL
same,EC50,SK-MEL-2,4.2 µg/mL
same,EC50,HCT-8,2.9 µg/mL
